Measured values as given in US7098195B2, “Fluorinated glucosamine analogs useful for modulating post-translational glycosylations on cells” (Health Research, Inc., priority 2001, dated 2006).

Experiments:
[1] = tested on: panel of human tumor cell lines as well as normal endothelial cells; test: Growth inhibition (IC50) of human tumor cell lines and normal endothelial cells; type: cell-based; details: newly synthesized compounds compared with compounds synthesized by the original method
From the text: Before conducting experiments with newly synthesized 3- and 4-F-GlcNAc the effects of 3- and 4-F-GlcNAc on the growth of a panel of human tumor cell lines as well as normal endothelial cells (i.e. IC50 values) were first determined and compared with the original growth inhibitory action (9 Bernacki, R. J. et al. (1977) J. Supra. Stru., 7:235–250; 10 Sharma, M. and W. Korytnyk (1980) Carbohyd. Res., 79:39–51;11 Sharma, M. et al. (1990). Carbohyd. Res., 198:205–22).

[2] = previous studies; cited from earlier work
[3] = tested on: human ovarian, A121, tumor cells; details: cited from earlier work
[4] = tested on: P-selectin ligand activity of CLA+ T-lymphocytes; test: Parallel-plate flow chamber, CLA+ T-cell tethering and rolling on P-selectin chimera; type: cell-based, human
Description: (§1) To analyze the affects of 4-F-GlcNAc on the function of CLA on human T-cells, we examined the ability of 4-F-GlcNAc-treated (0.05, 0.1, 0.5 mM for 30 hrs) CLA-+ T-cells cultures to engage with immobilized E- and P-selectin chimera in the parallel-plate flow chamber. As described for flow cytometric analyses (Example 13), cells were first pretreated with neuraminidase to remove terminal sialic acid residues required for HECA-452 reactivity and for E- and P-selectin ligand activity of CLA. This approach allowed for the assessment on de novo synthesized CLA molecules.
(§2) Tethering and rolling of human T-cells on recombinant human E- and P-selectin-Ig chimera (provided by Dr. Robert Fuhlbrigge, Harvard Medical School) and human L-selectin-Ig (gift from Dr. Ray Camphausen, Wyeth/Genetics Institute, Inc., Cambridge, Mass.) were analyzed in the parallel-plate flow chamber under physiologic shear stress conditions (3). To prepare E- and P-selectin-Ig chimera spots, protein A (300 μg/15 μl 0.1M NaHCO3) was adsorbed to Ten-twenty-nine™ Petri dishes for 2 h at 37° C. Human serum albumin ([…] PBS) then added and incubated for 2 h at 37° C. to block non-specific binding sites. E-selectin-Ig (50 ng/50 μl PBS) or P-selectin-Ig (50 ng/50 μl PBS) solutions was pipetted directly over the pre-existing protein A spots for 18 h at 4° C. To prepare L-selectin-Ig spots, L-selectin-Ig (300 ng/15 μl PBS) or isotype control human IgG (300 ng/15 μl) were adsorbed directly to plastic (non-protein A-coated) for 18 h at 4° C. and blocked in 100% FBS for 2 h at 4° C.
(§3) CLA^+ T-cells or freshly isolated PBL were treated with neuraminidase and metabolic glycosylation inhibitors or with protease (bromelain) as described above, washed twice in HBSS, suspended at 2×10^6/ml in HBSS/10 mM HEPES/2 mM CaCl2 (H/H/Ca^++) and infused into the chamber over selectin chimeras. Protease treatment was performed to control for residual E-selectin activity not attributable to the expression of CLA on a protein scaffold. Cell tethering was permitted at 0.6 dynes/cm^2 for 1 min, then stepwise increments in shear stress every 15 sec were employed to a final shear stress level of 60 dynes/cm^2. The number of cells rolling/viewing field (at 100× magnification) was quantified at each level of shear stress in triplicates for a minimum of three experiments. […] Negative control experiments were performed in parallel, wherein cell binding was examined in H/H adhesion assay medium containing 5 mM EDTA as well as assaying cell binding to human IgG isotype control.
(§4) Utilizing the parallel-plate flow chamber under physiologic shear stress conditions, E-, P- and L-selectin ligand activities of human CLA^+ T-cells treated were analyzed in an identical manner as cells prepared for Western blotting and autoradiography studies.

[5] = tested on: E-selectin ligand activity of CLA+ T-lymphocytes; test: Parallel-plate flow chamber, CLA+ T-cell tethering and rolling on E-selectin chimera; type: cell-based, human
Description: as §1, §2, §3, §4

[6] = tested on: L-selectin ligand activity of human CLA+ T-cells; test: Parallel-plate flow chamber, CLA+ T-cell rolling on L-selectin chimera; type: cell-based
Description: as §2, §3, §4

[7] = tested on: HECA-452 epitopes on PSGL-1; test: Western blot of HECA-452 epitopes on PSGL-1 of CLA+ T-cells; type: cell-based, human
Description: For analysis of CLA expression on T-cells treated with glycoconjugate modifiers, CLA^+ T-cells were first pretreated with neuraminidase (0.1 U/ml at 37° C. for 1 h) to eliminate functional CLA and cleave all HECA-452 reactive epitopes from the cell surface (35–38). Since we wanted to investigate whether these compounds directly affected CLA expression and function, neuraminidase pretreatment followed by incubations with glycosylation modifiers allowed for examination of de novo synthesized CLA/HECA-452 epitopes re-expressed on the cell surface. After neuraminidase digestion, cells were then incubated with tunicamycin (0.02 mM) (an inhibitor of GlcNAc phosphotransferase, the initial step of N-glycosylation), swainsonine (0.23 mM) (an inhibitor of α-mannosidase II and complex-type N-glycosylation), 4-F-GlcNAc (0.05 mM) (putative inhibitor of poly-N-acetyllactosamine biosynthesis), BAG (an inhibitor of O-glycan biosynthesis) (<2 mM) or GlcNAc (5 mM) (negative control, naturally-occurring metabolic counterpart of 4-F-GlcNAc)for 30 h in the presence of human recombinant IL-2. […] Concentrations for BAG were selected based on maximal O-glycosylation inhibitory effects at non-growth inhibitory concentrations as previously reported (39). To determine a suitable concentration of 4-F-GlcNAc for examining glycoconjugate-modifying effects without influencing cell growth or protein synthesis, we performed preliminary growth inhibitory experiments of cells incubated with 4-F-GlcNAc for 2 cell doublings (˜36 h) at 37° C. (cell viability assessed by Trypan-blue exclusion).
For lysate preparation, cells (including radiolabeled cells) were washed 3× in ice cold PBS and lysed in buffer containing 150 mM NaCl, 50 mM Tris-HCl pH 7.4, 1 mM EDTA, 0.02% NaAzide, 20 μg/ml PMSF, Complete™ protease inhibitors cocktail tablets (Roche Molecular Biochemicals) and 2% NP-40 (250 μl/10^8 cells). Following 2 h incubation on ice, insoluble cellular debris was pelleted by centrifugation for 30 min at 10,000×g at 4° C. and solubilized protein lysate was collected and quantified by Bradford protein assay (Sigma Chemical). SDS was added to a final concentration of 1% in lysate preparations utilized for immunoprecipitation experiments.
For SDS-PAGE and Western blotting, cell lysates, membrane proteins or immunoprecipitates were diluted and boiled in reducing sample buffer, and separated on 7–9% SDS-PAGE gels. Resolved protein was transferred to Sequi-blot™ PVDF membrane (Bio-Rad, Inc., Hercules, Calif.) and blocked with FBS for 1 hr at RT. Blots were incubated with rat IgM anti-human CLA HECA-452 (1 μg/ml), mouse IgG anti-human PSGL-1 moAbs PL-2 (1 μg/ml), 203, 4F9 and 4D8 (1 μg each/ml), or mouse IgG anti-human CD43 L60 (1 μg/ml) for 1 hr at RT. Isotype control immunoblots using either rat IgM or mouse IgG were performed in parallel to evaluate non-specific reactive proteins. After three washes with PBS/0.1%Tween-20 (10 min/wash), blots were incubated with the respective secondary Ab, AP-conjugated goat anti-rat IgM (1:400) or goat anti-mouse IgG (1:8000). AP substrate, Western Blue® (Promega, Madison, Wis.) was then added to develop blots.
Cells were then re-cultured in the presence of glycosylation inhibitor, diluent control (PBS) or molecular control (GlcNAc) for 30 hr and then harvested for CLA expression and functional analysis. […] To assess the duration of anti-carbohydrate effects on HECA-452 expression on PSGL-1, cells treated with 4-F-GlcNAc for 30 h and were then re-cultured in non-4-F-GlcNAc-containing medium for 72 h.

[8] = tested on: α-mannose (ConA staining); type: cell-based, human; details: compared with PBS or GlcNAc treatments
Description: (§5) For lectin blotting, cell lysates (25 μg/spot) were spotted onto methanol-permeabilized PVDF membrane and blocked in FBS for 1 h at RT. Blots were then probed with AP-Canavalia ensiformis agglutinin (ConA) (2.0 μg/ml PBS; specificity: α-mannose), AP-Triticum vulgaris (Wheat germ) agglutinin (WGA) (0.5 μg/ml PBS; specificity: terminal GlcNAc or GlcNAcβ1,4GlcNAc) or AP-Lycopersicon esculentum (tomato lectin) agglutinin (LEA) (1.0 μg/ml PBS; specificity: (Galβ1,4GlcNAc)n) for 1 h at RT (All lectins from EY Labs., Inc., San Mateo, Calif.). After washing 3× in PBS/0.1% Tween-20 and 1× in PBS (10 min each), blots were developed with Western Blue®.
(§6) To analyze and identify the glycan modifications on CLA^+ T-cells treated with 4-F-GlcNAc, lectin blotting experiments were performed with ConA (Specificity: α-mannose), WGA (Specificity: terminal GlcNAc or GlcNAcβ1,4GlcNAc) and LEA (Specificity: {Galβ1,4GlcNAc}n).

[9] = tested on: (Galβ1,4GlcNAc)n (LEA staining); test: Lectin blot with LEA of CLA+ T-cell lysates; type: cell-based, human; details: compared with PBS or GlcNAc treatments
Description: as §5, §6

| SMILES | IC50 values, growth of tumor cell lines and normal endothelial cells [1] | dose limiting toxicity [2] | incorporation of radiolabeled sugar precursors [3] | rolling adhesions on P-selectin chimera [4] | rolling adhesions on E-selectin chimera [5] | rolling adhesions on L-selectin chimera [6] | de novo synthesized HECA-452 epitopes on PSGL-1 (Western blot) [7] | effects on HECA-452 expression ([7]; concentrations below 1.0 mM, preliminary, data not shown) | ConA staining of lysates [8] | LEA staining of lysates [9] |
| --- | --- | --- | --- | --- | --- | --- | --- | --- | --- | --- |
| CC(=O)N[C@H]1C(OC(C)=O)O[C@H](COC(C)=O)[C@@H](OC(C)=O)[C@@H]1F (stereo partly drawn) [3-F-GlcNAc, 2-acetamido-2-deoxy-1,4,6-tri-O-acetyl-3-deoxy-3-fluoro-D-glucopyranose] | identical to those that were previously described | ~250 mg/kg×6 days | conspicuous reductions | – | – | – | – | – | – | – |
| CC(=O)N[C@H]1C(OCc2ccccc2)O[C@H](CO)[C@H](O)[C@@H]1O (stereo partly shown) [BAG, benzyl-O-N-acetylgalactosamide] | – | – | – | significant reductions | significant reductions | significant reductions | marked reduction | minimal effects | no effect | did not affect |
